Test results reported in patent US4240964A, “2-(O-Hydroxyphenyl)-pyrrole and process for its preparation” (BASF Aktiengesellschaft, priority 1978, dated 1980).
Where a name gives a salt, the structure may show the parent alone.

Legend:
[1] = for Therapeutic range, absolute (LD 50 / ED 50%): LD 50 i.p. mice, ED 50% i.v. rats; for Therapeutic range (LD 50 / ED 50%), times greater than propranolol: comparison with propranolol; for Therapeutic range, relative (Propranolol = 1.00): relative to propranolol
Protocol: Isoproternol was administered before, and 5 minutes after, the intravenous administration of the test substances.

in vivo = conditions: mouse, ip
[2] = test system: isoproterenol-induced tachycardia (β1); experiment: β1-sympatholytic action: inhibition of isoproterenol-induced tachycardia in pithed rats; format: in vivo, rats (Sprague-Dawley, Rattus norvegicus); conditions: for ED50: Rattus norvegicus, 5 min, isoproterenol 0.1 ug/kg i.v. before and 5 minutes after test substance, read-out: β1-sympatholytic action ED 50% (dose which inhibits the isoproterenol-induced tachycardia by 50%); for β1-sympatholytic activity, times greater than propranolol: comparison with propranolol
Protocol: The β-sympatholytic action was tested on rats, in comparison with the known β-sympatholytic agent propranolol (1-isopropylamino)-1-naphthyloxy-2-propanol.HC1).
^1 Inhibition of isoproterenolinduced tachycardia in pithed rats.
Intravenous administration
^2 Dose which inhibits the isoproterenolinduced tachycardia by 50%

Structure (SMILES)	Therapeutic range, absolute (LD 50 / ED 50%) [1]	Therapeutic range (LD 50 / ED 50%), times greater than propranolol [1]	Therapeutic range, relative (Propranolol = 1.00) [1]	LD50 at 24 h (in vivo)	ED50 ([2]; intravenous, pithed rats)	β1-sympatholytic activity, times greater than propranolol [2]	R.A. (relative activity, Propranolol = 1.00), β1-sympatholytic action ([2]; intravenous, pithed rats, relative to propranolol)
CC(C)(C)NCC(O)COc1ccccc1-c1ccc[nH]1.O=C(O)/C=C/C(=O)O (stereo not shown) [Example II, 2-[2-(3-tert.-butylamino-2-hydroxypropoxy)-phenyl]-pyrrole fumarate]	767	7 times	6.91	165 mg/kg	0.00227 mg/kg	5.6 times	–
CC(C)NCC(O)COc1ccccc1-c1ccc[nH]1 (stereo not shown) [Example III, 2-[2-(3-isopropylamino-2-hydroxypropoxy)-phenyl]-pyrrole fumarate hemihydrate]	452	4 times	4.07	97.2 mg/kg	0.004 mg/kg	3.2 times	–
CC(C)NCC(O)COc1cccc2ccccc12 (stereo not shown) [Propranolol, reference compound]	–	–	–	–	–	–	1.00
